# In paper PMC11117723, “Benzene with Alkyl Chains Is a Universal Scaffold for Multivalent Virucidal Antivirals” (ACS Central Science, 2024):
# Where two headings read alike, the source gives them in different places.
# Key:
# [1] = system: HSV-2; experiment: HSV-2 inhibition (dose response) plaque assay on Vero cells; assay type: cell-based; conditions: for EC50: Human alphaherpesvirus 2, Vero, Vero cells, virus pre-incubated with compound 1 h, read-out: HSV-2 EC50 (95% CI)
# [2] = system: SARS-CoV-2 (Alpha); experiment: SARS-CoV-2 (alpha strain) inhibition plaque assay on Vero E6 cells; assay type: cell-based; conditions: Severe acute respiratory syndrome coronavirus 2, Vero C1008, read-out: SARS-CoV-2 (Alpha) EC50 (95% CI)
# [3] = Vero cell cytotoxicity (MTS assay); assay type: cell-based; conditions: African green monkey, Vero cells, read-out: CC50 (95% CI), Vero cells
# [4] = system: HIV-1 (YU-2); experiment: HIV-1 (YU-2) inhibition assay on TZM-bl cells (luciferase); assay type: cell-based; conditions: Human immunodeficiency virus 1, read-out: HIV-1 EC50 (95% CI)
# [5] = in vitro; conditions: African green monkey
# [6] = TZM-bl cell cytotoxicity (WST-1); conditions: human
# [7] = system: SARS-CoV-2 (Omicron); experiment: SARS-CoV-2 Omicron dose-response assay on Vero E6 cells; assay type: cell-based; conditions: Severe acute respiratory syndrome coronavirus 2, Vero C1008, read-out: SARS-CoV-2 (Omicron) EC50 (95% CI)
# [8] = system: SARS-CoV-2 Alpha; assay type: in vivo, Syrian hamster; conditions: nirmatrelvir 250 mg/kg orally
Compound,EC50 [1] [µM],EC50 [2] [µM],CC50 at 24 h [3] [µM],EC50 [4] [µM],CC50 [5] [µM],other results
O=S(=O)(O)OCCOCCOCCOCCSCc1cc(CSCCOCCOCCOCCOS(=O)(=O)O)cc(CSCCOCCOCCOCCOS(=O)(=O)O)c1 [B3PEG4S],> 400,> 400,,,,HSV-2 inhibition at 400 μM ([1]; 400 μM): No inhibition
O=S(=O)(O)OCCCCCCCCCCCSCc1cc(CSCCCCCCCCCCCOS(=O)(=O)O)cc(CSCCCCCCCCCCCOS(=O)(=O)O)c1 [B3C11S],26.2,0.84,384,6.44,11.2,CC50 at 6 h ([6]; TZM-bl cells): > 100 µM
CCc1c(CSCCCCCCCCCOS(=O)(=O)O)c(CC)c(CSCCCCCCCCCOS(=O)(=O)O)c(CC)c1CSCCCCCCCCCOS(=O)(=O)O [BET3C9S],13.1,1.1,81.6,6.12,17,EC50 [7]: > 104 µM; CC50 at 6 h [6]: 29.7 µM
O=S(=O)(O)OCCCCCCCCCSCC(COS(=O)(=O)O)(COS(=O)(=O)O)CSCCCCCCCCCOS(=O)(=O)O [P2C9S],326,> 1300,,,> 1300,
O=S(=O)(O)OCCCCCCCCCCO[C@H]1[C@H](OS(=O)(=O)O)[C@H](OCCCCCCCCCCOS(=O)(=O)O)[C@H](OS(=O)(=O)O)[C@@H](OCCCCCCCCCCOS(=O)(=O)O)[C@@H]1OS(=O)(=O)O [I3C10S],163,458,> 359,,> 356,
O=S(=O)(O)OCCCCCCCCCSCc1cccc(CSCCCCCCCCCOS(=O)(=O)O)c1CSCCCCCCCCCOS(=O)(=O)O [OB3C9S],18,1.4,135,,18.4,
O=S(=O)(O)OCCCCCCCCCSCC(COS(=O)(=O)O)(CSCCCCCCCCCOS(=O)(=O)O)CSCCCCCCCCCOS(=O)(=O)O [P3C9S],24.4,10.3,522,,413,EC50 [7]: > 1080 µM
O=S(=O)(O)OCCCCCCSCc1cc(CSCCCCCCOS(=O)(=O)O)cc(CSCCCCCCOS(=O)(=O)O)c1 [B3C6S],78.4,195,> 530,5.47,> 530,CC50 at 6 h ([6]; TZM-bl cells): > 133 µM
O=c1n(CCSCCCCCCCCCOS(=O)(=O)O)c(=O)n(CCSCCCCCCCCCOS(=O)(=O)O)c(=O)n1CCSCCCCCCCCCOS(=O)(=O)O [A3C9S],20.1,23.1,221,,39.5,
"CC(C)(C)[C@H](NC(=O)C(F)(F)F)C(=O)N1C[C@H]2[C@@H]([C@H]1C(=O)N[C@H](C#N)C[C@@H]1CCNC1=O)C2(C)C [nirmatrelvir, reference compound]",,,,,,"viral RNA levels in oral swab vs untreated ([8]; […], P = 0.0021): significantly lower viral RNA levels; viral RNA copies in lung vs untreated ([8]; […], P = 0.0031): significantly decreased viral RNA copies; infectious viral titer (TCID50) in the lungs vs untreated ([8]; […], P = 0.0066): significantly decreased the viral titer; infectious viral titer (TCID50) in the lungs vs untreated ([8]; […], P = 0.012): significantly decreased the viral titer; infectious viral titer (TCID50) in the lungs vs untreated ([8]; […], P = 0.079): no significant difference; histopathological evaluation of lung tissues [8]: improved pulmonary conditions; severe lung damage (histopathology categories E and F) ([8]; P = 0.03): reducing severe lung damage"
CCc1c(CSCCCCCCOS(=O)(=O)O)c(CC)c(CSCCCCCCOS(=O)(=O)O)c(CC)c1CSCCCCCCOS(=O)(=O)O [BET3C6S],28.5,> 119,> 477,8.22,451,CC50 at 6 h [6]: > 119 µM
